Columns and labels:
[1] = tested on: wheat (Triticum aestivum, variety "TRISO"); experiment: Root growth assay, seed treatment, wheat; format: in vivo; conditions: Root Growth of 100 set as standard (untreated control), wet root weight 16 (±2) days post treatment
Source text: (§1) Plant roots are a highly proliferative tissue which allows to be seen as a reliable target organ in order to screen for plant growth regulators. The results obtained are regarded as an indication for the overall effects on a plant of plant growth regulators identified by such a system. By using this root assay one is enabled to determine the effect of a seed treatment to root growth and/or germination and/or changes in habitat of germinated plants in order to identify the possible use as a yield enhancer. Two seeds of wheat (Triticum aestivum, variety “TRISO”) or 1 seed of maize (Zea mays, variety “LORENZO”) per hole in a plastic tray which contains an architecture of 8×13 holes were placed on compost soil covered with sand. These seeds were treated with 100 μl/hole, which creates an application volume of approx. 1200 l/ha, of a compound solution at active ingredient rates equivalent to 100, 10 and 1 g a.i./ha of each compound using an robotic application system (Lizzy Spray Robotics). Six replicates in a row of each compound and concentration were done. The outer rim of the above defined plastic tray was untreated to avoid false negative effects and the middle row (No. 7) was used as untreated control. The treated seeds were allowed to dry for approx. 4 hours and subsequently covered with sand and watered. The trays were stored in climate chambers with 14 hours lighting at a temperature of 24° C. (±2) at daytime and 16° C. (±2) at night and relative humidity (rH) of 60% and daily watered. Assessments were done 16 (±2) days post treatment by counting the germinated plants and assessing the phytotoxicity symptoms and percentage. In addition, the roots were washed out and the shoots were cut directly above the seed and the wet roots were placed on dry paper towels for approximately 30 minutes and weighted afterwards. This procedure provides a similar grade of moisture to the roots so that a comparison of the weights is possible.
(§2) The effects observed concerning Root Growth given in column 2 (Root Growth of “100” is set as the standard) are directed to concentrations that are equivalent to 100, 10, 1 g a.i./ha, each.

[2] = tested on: maize (Zea mays, variety "LORENZO"); experiment: Root growth assay, seed treatment, maize; format: in vivo; conditions: Root Growth of 100 set as standard (untreated control), wet root weight 16 (±2) days post treatment
Source text: as §1, §2

SMILES | Root Growth ([1]; 1 g a.i./ha) | Root Growth ([1]; 10 g a.i./ha) | Root Growth ([1]; 100 g a.i./ha) | Root Growth ([2]; 1 g a.i./ha) | Root Growth ([2]; 10 g a.i./ha) | Root Growth ([2]; 100 g a.i./ha)
O=C1Nc2ccc(I)cc2C1=NNc1ncc(C(F)(F)F)cc1Cl [Compound 1.1] | 209 | 93 | 170 |  |  | 
O=C1Nc2ccc(Br)cc2C1=NNc1c(F)c(F)cc(F)c1F [Compound 1.2] | 198 | 228 | 274 | 69 | 116 | 567
O=C1Nc2ccc(Br)cc2C1=NNc1ccc(Cl)cc1 [Compound 1.4] |  |  |  | 105 | 125 | 99
O=C1Nc2ccc(Br)cc2C1=NNc1cc(Cl)cc(Cl)c1 [Compound 1.5] | 149 | 117 | 161 |  |  | 
Cc1ccc(NN=C2C(=O)Nc3ccc(Br)cc32)cc1 [Compound 1.6] |  |  |  | 149 | 140 | 137
O=C1Nc2ccc([N+](=O)[O-])cc2C1=NNc1ncc(C(F)(F)F)cc1Cl [Compound 1.8] |  |  |  | 174 | 100 | 48
O=C1Nc2ccc(Cl)cc2C1=NNc1cccc([N+](=O)[O-])c1 [Compound 1.10] |  |  |  | 126 | 107 | 102
Cc1ccc(NN=C2C(=O)Nc3ccc([N+](=O)[O-])cc32)cc1Cl [Compound 1.12] |  |  |  | 148 | 88 | 114
O=C1Nc2ccc(F)cc2C1=NNc1c(F)c(F)cc(F)c1F [Compound 1.18] |  |  |  | 150 | 85 | 170
NS(=O)(=O)c1ccc(NN=C2C(=O)Nc3ccc(F)cc32)cc1 [Compound 1.23, 4-[2-(5-Fluoro-2-oxo-1,2-dihydro-3H-indol-3-ylidene)-hydrazino]-benzenesulfonamide] | 135 | 61 | 65 |  |  | 
O=C1Nc2ccc(I)cc2/C1=C1/Nc2ccccc2/C1=N\O [Compound 2.1, 5-Iodoindirubin-3′-oxime] | 135 | 151 | 122 |  |  | 
CCON=C1C(=C2C(=O)Nc3ccc(Br)cc32)Nc2ccccc21 [Compound 2.4, 5-Bromoindirubin-3′-ethyloxime] | 184 | 115 | 62 |  |  | 
O=C1Nc2ccc(F)cc2C1=C1Nc2ccccc2C1=NO [Compound 2.7] | 182 | 390 | 172 | 174 | 159 | 118
